Experiment [1] has as its system Escherichia coli ATCC25922. Briefly: MIC by broth microdilution (CLSI) against Escherichia coli ATCC 25922. The experiment is classed as cell-based. The note with it: Escherichia coli ATCC25922, in vitro. As to the method: (§1) The in vitro activity against aerobic bacteria was determined by Broth Microdilution Test according to the Clinical and Laboratory Standards Institute (CLSI, former NCCLS) Document M7-A9 Vol 32, No 2 “Methods for Dilution Antimicrobial Susceptibility Tests for Bacteria that Grow Aerobically; Approved Standard—Ninth Edition (2012)”; and the test against anaerobic bacteria was performed by Agar Dilution Test according to the Clinical and Laboratory Standards Institute (CLSI, former NCCLS), Document, M11-A8, Vol. 32, No. 5: “Methods for Antimicrobial Susceptibility Testing of Anaerobic Bacteria; Approved Standard—Eighth Edition (2012)”. Performance standards and interpretive criteria followed the CLSI Document, M100-S23: “Performance Standards for Antimicrobial Susceptibility Testing; Twenty-Third Informational Supplement” (2013). The in vivo activity was tested by the septicaemia mouse model against Staphylococcus aureus and Escherichia coli.
(§2) The antibacterial activity expressed as minimal inhibitory concentration (MIC) was determined according to the approved standard reference recommendations of CLSI (former NCCLS) as described in the description of the application.

Experiment [2] has as its system Staphylococcus aureus ATCC 49951. The experiment can be described thus: MIC by broth microdilution (CLSI) against Staphylococcus aureus ATCC 49951. Type of experiment: cell-based. The note with it: Staphylococcus aureus ATCC 49951, in vitro. The protocol: as §1, §2
(Broth dilution looks for growth in wells or tubes with falling amounts of substance.)

In brackets after ≈: the same amount, converted by molar mass. Structures can show the parent of a compound that is named as a salt. Where two headings read alike, the source gives them in different places.

“12-epi-12-desvinyl-14-O-{[1-(2-Amino-acetyl)-piperidin-4-yl-methylsulfanyl]-acetyl}-12-[(4-aminomethyl-phenylamino)-methyl] mutilin trihydrochloride [Example 81]”: the MIC (usually the smallest concentration in the dilution series that meets the test's criterion for growth inhibition) amounted to 8 µg/mL in experiment [1] and 0.125 µg/mL in experiment [2].
`C=C[C@]1(C)C[C@@H](OC(=O)CSC(C)(C)CNC(=O)[C@H](N)C(C)C)[C@]2(C)[C@H](C)CC[C@]3(CCC(=O)[C@H]32)[C@@H](C)[C@@H]1O` [Econor, econor, reference compound]: the MIC in experiment [1] was 32 µg/mL (≈ 56.7 µM); in experiment [2], “≦0.03 μg/mL”.
On to `C[C@@H]1CC[C@@]23CCC(=O)[C@H]2[C@]1(C)[C@H](OC(=O)CSc1ccc(CC(=O)NCCCN)cc1)C[C@](C)(CNCCCN)[C@@H](O)[C@@H]3C` [Example 1, 12-epi-12-desvinyl-14-O-{{4-[(3-Amino-propylcarbamoyl)-methyl]-phenylsulfanyl}-acetyl}-12-[(3-amino-propylamino)-methyl] mutilin trihydrochloride], for which the MIC in experiment [1] (read-out: MIC) was 0.5 µg/mL; in experiment [2] (ATCC49951, read-out: MIC), at most 0.03 µg/mL.
Regarding `CC1C(O)C(C)(CNCc2ccc(CN)cc2)CC(OC(=O)CSc2ccc(CC(=O)NCCCN)cc2)C2(C)C(C)CCC13CCC(=O)C32.Cl.Cl.Cl` (stereo not drawn) [Example 9, 12-epi-12-desvinyl-14-O-{{4-[(3-Amino-propylcarbamoyl)-methyl]-phenylsulfanyl}-acetyl}-12-[(4-aminomethyl-benzylamino)-methyl] mutilin trihydrochloride], the minimal inhibitory concentration (MIC) in experiment [1] is 0.5 µg/mL; in experiment [2], “≦0.03 μg/mL”.
As to `CC1C(O)C(C)(CNCCCCCCNC(=N)N)CC(OC(=O)CSc2ccc(CC(=O)NCCCN)cc2)C2(C)C(C)CCC13CCC(=O)C32.Cl.Cl.Cl` (stereo not drawn) [Example 11, 12-epi-12-desvinyl-14-O-{{4-[(3-Amino-propylcarbamoyl)-methyl]-phenylsulfanyl}-acetyl}-12-[(6-guanidino-hexylamino)-methyl] mutilin trihydrochloride], the minimum inhibitory concentration (MIC) is 0.25 µg/mL in experiment [1] and “≦0.03 μg/mL” in experiment [2].
With `C[C@@H]1CC[C@@]23CCC(=O)[C@H]2[C@]1(C)[C@H](OC(=O)CSc1ccc(C(=O)NCc2ccc(CN)cc2)cc1)C[C@](C)(CNCCCCCCN)[C@@H](O)[C@@H]3C` [Example 23, 12-epi-12-desvinyl-14-O-{[4-(4-Aminomethyl-benzylcarbamoyl)-phenylsulfanyl]-acetyl}-12-[(6-amino-hexylamino)-methyl] mutilin trihydrochloride], the MIC was 1 µg/mL in experiment [1] (read-out: MIC) and at most 0.03 µg/mL in experiment [2] (ATCC49951, read-out: MIC).
`C[C@@H]1CC[C@@]23CCC(=O)[C@H]2[C@]1(C)[C@H](OC(=O)CSC1CCC(CN)CC1)C[C@](C)(CNCCCCCCN)[C@@H](O)[C@@H]3C` (stereo partly drawn) [Example 47, 12-epi-12-desvinyl-14-O-{[(4-Aminomethyl-cyclohexyl)-sulfanyl]-acetyl}-12-[(6-amino-hexylamino)-methyl] mutilin trihydrochloride]: the MIC in experiment [1] (read-out: MIC) is 0.5 µg/mL; in experiment [2] (ATCC49951, read-out: MIC), at most 0.03 µg/mL.
In the case of `C[C@@H]1CC[C@@]23CCC(=O)[C@H]2[C@]1(C)[C@H](OC(=O)CSc1ccc(CCCN)cc1)C[C@](C)(CNCCCCCCN)[C@@H](O)[C@@H]3C` [Example 48, 12-epi-12-desvinyl-14-O-{[4-(3-Amino-propyl)-phenylsulfanyl]-acetyl}-12-[(6-amino-hexylamino)-methyl] mutilin trihydrochloride], the MIC was 0.25 µg/mL in experiment [1] (read-out: MIC) and at most 0.03 µg/mL in experiment [2] (ATCC49951, read-out: MIC).
For `C[C@@H]1CC[C@@]23CCC(=O)[C@H]2[C@]1(C)[C@H](OC(=O)CSc1ccc(CC(=O)NCCCN)cc1)C[C@](C)(CCNCCCN)[C@@H](O)[C@@H]3C` [Example 52, 12-epi-12-desvinyl-14-O-{{4-[(3-Amino-propylcarbamoyl)-methyl]-phenylsulfanyl}-acetyl}-12-[2-(3-amino-propylamino)-ethyl] mutilin trihydrochloride], the MIC in experiment [1] (read-out: MIC) was 0.5 µg/mL; in experiment [2] (ATCC49951, read-out: MIC) it was at most 0.03 µg/mL.
For `CC1C(O)C(C)(CNCCCCCCN)CC(OC(=O)CSc2cccc(CO)c2)C2(C)C(C)CCC13CCC(=O)C32.Cl.Cl` (stereo not drawn) [Example 54, 12-epi-12-desvinyl-14-O-[(3-Hydroxymethyl-phenylsulfanyl)-acetyl]-12-[(6-amino-hexylamino)-methyl] mutilin dihydrochloride], the MIC was determined as 4 µg/mL in experiment [1] and 0.125 µg/mL in experiment [2].
The matching figures for `C[C@@H]1CC[C@@]23CCC(=O)[C@H]2[C@]1(C)[C@H](OC(=O)CS[C@@H]1CC[C@@H](N)C[C@H]1O)C[C@](C)(CNCCCN)[C@@H](O)[C@@H]3C.Cl.Cl.Cl` [Example 62, 12-epi-12-desvinyl-14-O-{[(1R,2R,4R)-4-Amino-2-hydroxy-cyclohexylsulfanyl]-acetyl}-12-[(3-amino-propylamino)-methyl] mutilin trihydrochloride]: 4 µg/mL and 0.25 µg/mL.
Turning to `CC1C(O)C(C)(CNCc2ccc(CN)cc2)CC(OC(=O)CSCCO)C2(C)C(C)CCC13CCC(=O)C32.Cl.Cl` (stereo not drawn) [Example 64, 12-epi-12-desvinyl-14-O-[(2-Hydroxy-ethylsulfanyl)-acetyl]-12-[(4-aminomethyl-benzylamino)-methyl] mutilin dihydrochloride], the minimum inhibitory concentration (MIC) in experiment [1] stood at 4 µg/mL; in experiment [2], 0.5 µg/mL.
Taken in the same sequence, the figures for `CC1C(O)C(C)(CNCc2ccc(CN)cc2)CC(OC(=O)CSCCN)C2(C)C(C)CCC13CCC(=O)C32.Cl.Cl.Cl` (stereo not drawn) [Example 65, 12-epi-12-desvinyl-14-O-[(2-Amino-ethylsulfanyl)-acetyl]-12-[(4-aminomethyl-benzylamino)-methyl] mutilin trihydrochloride] were 2 µg/mL and 0.5 µg/mL.
Take `C[C@@H]1CC[C@@]23CCC(=O)[C@H]2[C@]1(C)[C@H](OC(=O)CSc1nnc(N)[nH]1)C[C@](C)(CNCCCCCCN)[C@@H](O)[C@@H]3C.Cl.Cl.Cl` [Example 66, 12-epi-12-desvinyl-14-O-{[(5-Amino-4H-1,2,4-triazol-3-yl)-sulfanyl]-acetyl}-12-[(6-amino-hexylamino)-methyl] mutilin trihydrochloride]: the values for the minimum inhibitory concentration (MIC) in experiment [1] and in experiment [2] were 4 µg/mL and 0.5 µg/mL, respectively.
In the case of `CC1C(O)C(C)(CNCCCCCCN)CC(OC(=O)CSc2ccncc2)C2(C)C(C)CCC13CCC(=O)C32.Cl.Cl.Cl` (stereo not drawn) [Example 68, 12-epi-12-desvinyl-14-O-[(Pyridin-4-ylsulfanyl)-acetyl]-12-[(6-amino-hexylamino)-methyl] mutilin trihydrochloride], the minimum inhibitory concentration (MIC) in experiment [1] was determined as 4 µg/mL; in experiment [2] it was 0.25 µg/mL.
As to `C[C@@H]1CC[C@@]23CCC(=O)[C@H]2[C@]1(C)[C@H](OC(=O)CSC1CCN(C(=O)CN)CC1)C[C@](C)(CNCc1ccc(CN)cc1)[C@@H](O)[C@@H]3C` [Example 78, 12-epi-12-desvinyl-14-O-{[1-(2-Amino-acetyl)-piperidin-4-yl-sulfanyl)]-acetyl}-12-[(4-aminomethyl-benzylamino)-methyl] mutilin trihydrochloride], the MIC amounted to 2 µg/mL in experiment [1] (read-out: MIC) and 0.5 µg/mL in experiment [2] (ATCC49951, read-out: MIC).
With `C[C@@H]1CC[C@@]23CCC(=O)[C@H]2[C@]1(C)[C@H](OC(=O)CSC1CCN(C(=O)CN)CC1)C[C@](C)(CNCc1ccc(OCCN)cc1)[C@@H](O)[C@@H]3C` [Example 83, 12-epi-12-desvinyl-14-O-{[1-(2-Amino-acetyl)-piperidin-4-yl-sulfanyl]-acetyl}-12{2-[4-(2-amino-ethoxy)-benzylamino]-methyl} mutilin trihydrochloride], the MIC turned out to be 1 µg/mL in experiment [1] (read-out: MIC) and 0.25 µg/mL in experiment [2] (ATCC49951, read-out: MIC).
With `C[C@@H]1CC[C@@]23CCC(=O)[C@H]2[C@]1(C)[C@H](OC(=O)CSc1cccc(CN)c1)C[C@](C)(CNCCCN)[C@@H](O)[C@@H]3C.Cl.Cl.Cl` [Example 86, 12-epi-12-desvinyl-14-O-[(3-Aminomethyl-phenylsulfanyl)-acetyl]-12-[(3-amino-propylamino)-methyl] mutilin trihydrochloride], the values for the minimum inhibitory concentration (MIC) in experiment [1] and in experiment [2] were 0.5 µg/mL and 0.06 µg/mL, respectively.
As to `C[C@@H]1CC[C@@]23CCC(=O)[C@H]2[C@]1(C)[C@H](OC(=O)CSc1ccc(CN)cn1)C[C@](C)(CNCc1ccc(CN)cc1)[C@@H](O)[C@@H]3C` [Example 98, 12-epi-12-desvinyl-14-O-{[5-Aminomethyl-pyridin-2-yl-sulfanyl)]-acetyl}-12-[(4-aminomethyl-benzylamino)-methyl] mutilin tetrahydrochloride], the minimal inhibitory concentration (MIC) in experiment [1] (read-out: MIC) came to 0.5 µg/mL; in experiment [2] (ATCC49951, read-out: MIC), 0.125 µg/mL.
In the case of `C[C@@H]1CC[C@@]23CCC(=O)[C@H]2[C@]1(C)[C@H](OC(=O)CSc1ccc(CN)cn1)C[C@](C)(CNCc1ccc(CN)c(F)c1)[C@@H](O)[C@@H]3C` [Example 99, 12-epi-12-Desvinyl-14-O-{[5-aminomethyl-pyridin-2-yl-sulfanyl)]-acetyl}-12-[(4-aminomethyl-3-fluoro-benzylamino)-methyl] mutilin tetrahydrochloride], the minimum inhibitory concentration (MIC) in experiment [1] (read-out: MIC) turned out to be 0.5 µg/mL; in experiment [2] (ATCC49951, read-out: MIC), 0.25 µg/mL.

Source of the values: patent US9701628B2, “12-epi pleuromutilins” (NABRIVA THERAPEUTICS AG, priority 2014, dated 2017).
